Test results from patent publication US20090326008A1, “NF-kappa B Inhibitor” (priority 2006, published 2009).

System: COX-2 gene expression
Assay: Effects of test compounds on COX-2 gene expression in gastric cancer cell line MKN-45 (real-time PCR)
Type: cell-based, human
Conditions: MKN-45 cells, test compound 1 μM, 16 hours, vs DMSO control = 100%, mean of triplicate
Description: The human gastric cancer cell line MKN-45 obtained from JCRB (Japanese Collection of Research Bioresources) was cultured in Iscove's Modified Dulbecco's Medium (product of GIBCO) containing 10% fetal calf serum for 24 hours using a 6-well plate and a 5% CO2 incubator (37° C., 5% CO2). Test compound solutions prepared by diluting each test compound with DMSO (solvent) to a final concentration of 1 μM, and the same amount of DMSO as a control solution (containing no test compound) were added to the wells of the 6-well plate, and the cells were cultured in a CO2 incubator (37° C., 5% CO2) for 16 hours.
The cells were recovered, and Total RNA was prepared from the cells using Trizole reagent (product of Invitrogen) according to the standard method. Real-time PCR was performed using TaqManO Gene Expression Assays for human COX-2 (product of Applied Biosystems), and the amount of COX-2 mRNA in each test-compound-treated cell were determined. […]
PCR was performed according to the manufacturer's instructions for TaqMan® Gene Expression Assays (product of Applied Biosystems). […] The amount of each mRNA was determined from the calibration curve using the ABI PRISM 7000 Sequence Detection System. […]

`COc1ccc(CC2SC(=S)NC2=O)c2c1N(CCC(C)C)C(=O)CC2` (stereo not shown) [Test Compound 965] was tested. Which “COX-2 gene expression inhibition (%)” value did it give?
The value was >20%.
